{
  "source": "paper PMC6522524",
  "about": "(Nature Communications, 2019)",
  "key": {"[1]": {"test_system": "HBV pgRNA/precore RNA in HepG2.2.15 cells", "format": "cell-based, Hepatitis B virus", "description": "Fig. 1 Effect of FDA-approved compounds on HBV replication. a Schematic depiction of the primary screening analysis. HepG2.2.15 cells, which were stably transfected with HBV replicons, were treated with 978 FDA-approved drugs (1 μM) for 3 days. Entecavir (ETV) (1 μM) served as positive control. […] Quantitative RT-PCR was performed after 6 days of incubation. d Effect of the 19 candidates on intracellular HBV capsid assembly. Huh-7 cells were transfected with pCDNA3-Core and exposed after 12 h to the 19 candidates (1 μM) for 36 h. The cells were lysed and assembled HBV core particles were isolated by sucrose step gradient ultracentrifugation, resolved on 1% agarose gels, and subjected to immunoblot analysis with anti-HBV core antibody.\n(§1) Quantitative RT-PCR with primers that detect three HBV regions (R1, R2, and R3, Supplementary Table 1) was used to measure HBV transcription. This RT-PCR detects pgRNA and precore RNA (3.5 kB), two HBV surface-encoding RNAs (2.5 kB and 2.1 kB), and HBx-encoding RNA (0.7 kB)[55]. PCR conditions were 95 °C for 10 min initially, then 50 cycles of 95 °C for 30 s, 60 °C for 60 s and 72 °C for 30 s, and finally 1 cycle of 95 °C for 60 s, 55 °C for 30 s and 95 °C for 30 s.\na Schematic depiction of the R1, R2, and R3 regions of the HBV genome that were targeted by\nquantitative RT-PCR to quantitate the transcription of pgRNA, two HBV surface RNAs, and HBx RNA.\npGL3/HBV pgRNA promoter or pGL3/HBV sRNA promoter. The data shown in (b – d) represent two"}, "[2]": {"test_system": "HBV transcripts in HepG2 cells transfected with pHBV1.2×", "test": "HBV transcription in HepG2 cells transfected with pHBV1.2×, quantitative RT-PCR", "format": "cell-based, Hepatitis B virus", "description": "as §1, with “s. […]” for “s.”\na Schematic depiction of the R1, R2, and R3 regions of the HBV genome that were targeted by quantitative RT-PCR to quantitate the transcription of pgRNA, two HBV surface RNAs, and HBx RNA. […]\nc Region 3 transcription in ciclopirox-treated (b) HepG2.2.15 cells and (c) HepG2 cells transfected with the pHBV1.2× plasmid. d The promoter analysis of ciclopirox-treated HepG2 cells transfected with pGL3/HBV pgRNA promoter or pGL3/HBV sRNA promoter. The data shown in (b – d) represent two"}, "[3]": {"biological_target": "HBV core protein Y118F mutant in Huh-7 cells (Hepatitis B virus genotype C, UniProt P0C6H6, Y118F)", "test": "Intracellular HBV capsid assembly, Huh-7 cells transfected with pCDNA3-Core Y118F", "format": "cell-based"}, "[4]": {"biological_target": "T1, Cp149 (truncated HBV core protein) (Hepatitis B virus genotype D subtype ayw, UniProt P03146)", "T1 construct": "Cp149 (amino acids 1–149) is a truncated form of the HBV core protein; made in house; host or cells: Escherichia coli", "test": "biochemical"}, "[5]": {"biological_target": "T1, Cp149 (truncated HBV core protein)", "test": "Electron microscopy of HBV capsid assembly in vitro", "format": "biochemical"}, "[6]": {"test": "in vitro", "format": "cell-based, human", "details": "human, Cell viability(%)", "description": "Supplementary Fig. 11. Effect of FBS serum iron level on Huh-7, HepG2, and HepG2.2.15 cell\na Cells were maintained in medium supplemented with 2% FBS or 10% FBS for 1 day and treated with\nAfter 6 days, cytotoxicity was measured. b Cells were treated with\nthe ± SD. *p < 0.05 by unpaired two-tailed Student’s t-test."}, "[7]": {"test_system": "total HBV core protein in Huh-7 cells", "format": "cell-based, Hepatitis B virus", "description": "the indicated times. The cells were lysed and assembled HBV core particles were isolated by sucrose step-gradient ultracentrifugation, resolved on 1 % agarose gels, and subjected to immunoblot analysis with anti-HBV core antibody. Total intracellular HBV core protein was also determined by immunoblot analysis in the cell lysates. Core mRNA levels were measured by quantitative RT-PCR. The data"}, "[8]": {"test_system": "patients", "details": "cited from earlier work"}, "[9]": {"test": "in vitro", "details": "human, Cell viability(%)"}, "[10]": {"test": "in vitro", "details": "human, Cell viability(%)", "remark": "listed apart in the source"}, "[11]": {"test_system": "HBV (genotype D) in HepG2-NTCP cells", "test": "In vitro HBV infection model, HepG2-NTCP cells: secreted HBV DNA"}, "[12]": {"test_system": "HBV cccDNA in Huh-7-NTCP cells", "test": "In vitro HBV infection model, Huh-7-NTCP cells: intracellular cccDNA"}},
  "data": [
    {"smiles": "Cc1cc(C2CCCCC2)n(O)c(=O)c1", "note": "[Ciclopirox, 6-cyclohexyl-1-hydroxy-4-methyl-2(1 H)-pyridone]", "values": [
      {"measurement": "HBV transcripts levels", "setting": "[1]", "result": "no effect"},
      {"measurement": "HBV transcripts levels", "setting": "[2]", "result": "no effect"},
      {"measurement": "reduction in sensitivity of Y118F compared with the wild-type", "setting": "[3]", "result": "approximately 4 fold"},
      {"measurement": "IC50", "setting": "[4]", "result": "445 ± 17", "unit": "nM"},
      {"measurement": "HBV capsid morphology (EM)", "setting": "[5]", "result": "HBV capsid morphology was altered"},
      {"measurement": "viability at 0.1 µM", "setting": "[6]; AVERAGE", "result": 100, "unit": "%"},
      {"measurement": "viability at 0.2 µM", "setting": "[6]; AVERAGE", "result": 100, "unit": "%"},
      {"measurement": "viability at 0.5 µM", "setting": "[6]; AVERAGE", "result": 99.6, "unit": "%"},
      {"measurement": "viability at 1 µM", "setting": "[6]; AVERAGE", "result": 99.1, "unit": "%"},
      {"measurement": "viability at 2 µM", "setting": "[6]; AVERAGE", "result": 97.4, "unit": "%"},
      {"measurement": "viability at 5 µM", "setting": "[6]; AVERAGE", "result": 95.2, "unit": "%"},
      {"measurement": "viability at 10 µM", "setting": "[6]; AVERAGE", "result": 93.6, "unit": "%"},
      {"measurement": "viability at 0.1 µM", "setting": "[6]; individual samples", "result": 99.9, "unit": "%"},
      {"measurement": "viability at 0.2 µM", "setting": "[6]; individual samples", "result": 99.6, "unit": "%"},
      {"measurement": "viability at 0.5 µM", "setting": "[6]; individual samples", "result": 99.4, "unit": "%"},
      {"measurement": "viability at 1 µM", "setting": "[6]; individual samples", "result": 98.9, "unit": "%"},
      {"measurement": "viability at 2 µM", "setting": "[6]; individual samples", "result": 97, "unit": "%"},
      {"measurement": "viability at 5 µM", "setting": "[6]; individual samples", "result": 93, "unit": "%"},
      {"measurement": "viability at 10 µM", "setting": "[6]; individual samples", "result": 93.5, "unit": "%"},
      {"measurement": "Total denatured HBV core protein", "setting": "[7]; 36 h", "result": "not affected"},
      {"measurement": "total core protein", "setting": "[7]; treatment time increased", "result": "decreased"},
      {"measurement": "Dose-limiting gastrointestinal toxicities", "setting": "[8]; 80 mg per m^2 four times daily, oral", "result": "Dose-limiting gastrointestinal toxicities were observed"},
      {"measurement": "anti-apoptotic gene expression in peripheral blood cells", "setting": "[8]; once daily >10 mg per m^2, oral", "result": "suppressed anti-apoptotic gene expression in peripheral blood cells"},
      {"measurement": "viability at 0.1 µM", "setting": "[9]; AVERAGE", "result": 98.8, "unit": "%"},
      {"measurement": "viability at 0.2 µM", "setting": "[9]; AVERAGE", "result": 102, "unit": "%"},
      {"measurement": "viability at 0.5 µM", "setting": "[9]; AVERAGE", "result": 97.7, "unit": "%"},
      {"measurement": "viability at 1 µM", "setting": "[9]; AVERAGE", "result": 98.7, "unit": "%"},
      {"measurement": "viability at 2 µM", "setting": "[9]; AVERAGE", "result": 99.1, "unit": "%"},
      {"measurement": "viability at 0.1 µM", "setting": "[9]; individual samples", "result": 98.8, "unit": "%"},
      {"measurement": "viability at 0.2 µM", "setting": "[9]; individual samples", "result": 102, "unit": "%"},
      {"measurement": "viability at 0.5 µM", "setting": "[9]; individual samples", "result": 97.6, "unit": "%"},
      {"measurement": "viability at 1 µM", "setting": "[9]; individual samples", "result": 98.6, "unit": "%"},
      {"measurement": "viability at 2 µM", "setting": "[9]; individual samples", "result": 99, "unit": "%"},
      {"measurement": "viability at 0.1 µM", "setting": "[10]; AVERAGE", "result": 99.9, "unit": "%"},
      {"measurement": "viability at 0.2 µM", "setting": "[10]; AVERAGE", "result": 99.2, "unit": "%"},
      {"measurement": "viability at 0.5 µM", "setting": "[10]; AVERAGE", "result": 99.4, "unit": "%"},
      {"measurement": "viability at 1 µM", "setting": "[10]; AVERAGE", "result": 99.9, "unit": "%"},
      {"measurement": "viability at 2 µM", "setting": "[10]; AVERAGE", "result": 99.4, "unit": "%"},
      {"measurement": "viability at 5 µM", "setting": "[10]; AVERAGE", "result": 99.2, "unit": "%"},
      {"measurement": "viability at 10 µM", "setting": "[10]; AVERAGE", "result": 99.8, "unit": "%"},
      {"measurement": "viability at 0.1 µM", "setting": "[10]; individual samples", "result": 98.9, "unit": "%"},
      {"measurement": "viability at 0.2 µM", "setting": "[10]; individual samples", "result": 95.7, "unit": "%"},
      {"measurement": "viability at 0.5 µM", "setting": "[10]; individual samples", "result": 98.9, "unit": "%"},
      {"measurement": "viability at 1 µM", "setting": "[10]; individual samples", "result": 99.9, "unit": "%"},
      {"measurement": "viability at 2 µM", "setting": "[10]; individual samples", "result": 99.6, "unit": "%"},
      {"measurement": "viability at 5 µM", "setting": "[10]; individual samples", "result": 97.6, "unit": "%"},
      {"measurement": "viability at 10 µM", "setting": "[10]; individual samples", "result": 99.9, "unit": "%"},
      {"measurement": "secretion of HBV DNA", "setting": "[11]", "result": "dropped markedly"},
      {"measurement": "cccDNA levels", "setting": "[12]", "result": "dropped markedly"}
    ]}
  ]
}
